Records with an inconclusive call do not appear. The source made the active and inactive calls. No rule for the calls is given here.
Each molecule was assayed against CAAX prenyl protease 2 (Saccharomyces cerevisiae (strain ATCC 204508 / S288c)) (UniProt Q03530) (assay: yeast Rce1 CAAX endoprotease inhibition – biochemical, plate reader, cherry-pick, dose response (AID 488788)). Details: Rce1p enzyme activity.
CAAX prenyl protease 2 (Saccharomyces cerevisiae (strain ATCC 204508 / S288c)), sequence (Q03530 whole entry, looked up): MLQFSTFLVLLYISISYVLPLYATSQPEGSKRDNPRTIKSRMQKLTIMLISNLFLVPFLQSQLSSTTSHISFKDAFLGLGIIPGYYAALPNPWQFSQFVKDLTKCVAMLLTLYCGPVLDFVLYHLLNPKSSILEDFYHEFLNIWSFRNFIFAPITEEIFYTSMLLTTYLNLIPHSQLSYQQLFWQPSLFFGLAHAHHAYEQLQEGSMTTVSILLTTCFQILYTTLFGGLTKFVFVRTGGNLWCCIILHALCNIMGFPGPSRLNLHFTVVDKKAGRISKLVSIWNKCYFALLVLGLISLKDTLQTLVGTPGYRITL
`CC1COc2c(N3CCN(C)CC3)c(F)cc3c(=O)c(C(=O)O)cn1c23` (stereo not given) was tested, and the AC50 was > 10 µM (inactive).

Same assay, conditions: Rce1p enzyme activity, at 10 µM (top of the series)
For `O=C(C1=C[C@@H](C2CC2)C[C@@H](OCc2ccc(CO)cc2)O1)N1CCN(Cc2ccccc2)CC1`, the “activity change, negative = inhibition” value was “inactive”.
For `O=C(NCC1CC1)c1ccc(Nc2nc3ccc(Br)cc3[nH]2)cc1`, the “activity change, negative = inhibition” value was “inactive”.
With `COc1ccc(/C=N/NC(=O)c2ccc(Cl)cc2)cc1COC(C)=O` the “activity change, negative = inhibition” value was “inactive”.
For `Cc1ccc(-c2cc3cccc[n+]3cc2-c2ccc(C)cc2)cc1`, the “activity change, negative = inhibition” value was “inactive”.
`COc1ccccc1NC(=O)/C(=C\c1cccnc1)NC(=O)c1ccc(C)cc1` was tested, and the “activity change, negative = inhibition” value was “inactive”.
For `CCOC(=O)c1c(-c2ccccc2)oc2ccc(OCC(O)CNCCN(C)C)cc12` (stereo not given), the “activity change, negative = inhibition” value was “inactive”.
`CCC(=O)Nc1cccc(NC(=S)NC(=O)c2cccs2)c1` was tested, and the “activity change, negative = inhibition” value was “inactive”.
`CCCCCCCCNC(C)C(O)c1ccc(SC(C)C)cc1` (stereo not given) was tested, and the “activity change, negative = inhibition” value was “inactive”.
`COc1cccc(NC(=O)Nc2cccn(Cc3ccc(C)cc3)c2=O)c1` was tested, and the “activity change, negative = inhibition” value was “inactive”.
With `COc1cc(-c2nc3ccccn3c2/N=C/c2cccc(OC)c2O)ccc1O` the “activity change, negative = inhibition” value was “inactive”.
In the case of `Cn1c(CN2CCOCC2)c(C#N)c2ccccc21`, the “activity change, negative = inhibition” value is reported as “inactive”.
For `CC(C)CNC(=O)Nc1ccc(F)c(Cl)c1`, the “activity change, negative = inhibition” value was “inactive”.
For `CCN(Cc1ccccc1)c1ccc(/C=N/N=C(N)N)cc1`, the “activity change, negative = inhibition” value was “inactive”.
For `COC(C/C=C/C(=O)[C@H](C)OCc1ccccc1)OC`, the “activity change, negative = inhibition” value was “inactive”.
For `CC(=O)OCC(=O)[C@@]12OC3(CCCC3)O[C@@H]1C[C@H]1[C@@H]3CCC4=CC(=O)C=C[C@]4(C)[C@@]3(F)[C@@H](O)C[C@@]12C`, the “activity change, negative = inhibition” value was “inactive”.
With `CN1CCN(c2ccc([N+](=O)[O-])c(Sc3nncn3C)c2)CC1` the “activity change, negative = inhibition” value was “inactive”.
In the case of `O=C(Nc1ccc(F)cc1)Oc1ccccc1N1CCOCC1`, the “activity change, negative = inhibition” value is reported as “inactive”.
For `COc1ccccc1C1=NN(C2=NN=C(N)Cc3ncnn32)C(O)(C(F)(F)F)C1` (stereo not given), the “activity change, negative = inhibition” value was “inactive”.
In the case of `COC(C/C=C/[C@@H](O)[C@H](C)OCc1ccccc1)OC`, the “activity change, negative = inhibition” value is reported as “inactive”.
In the case of `COc1nc(-c2ccccc2)ccc1-c1noc(-c2ccccc2F)n1`, the “activity change, negative = inhibition” value is reported as “inactive”.
With `O=C1CCCC(O)=C1N=Nc1ccc2ncsc2c1` the “activity change, negative = inhibition” value was “inactive”.
`CCc1nnc(NC(=O)c2ccc(NS(=O)(=O)c3ccccc3)cc2)s1` was tested, and the “activity change, negative = inhibition” value was “inactive”.
For `CCO[C@@H]1OC(C(=O)N2CCN(Cc3ccccc3)CC2)=C[C@H](c2ccccc2)[C@H]1CCCO`, the “activity change, negative = inhibition” value was “inactive”.
With `O=C1NC2(C=Cc3c(ccc4ccccc34)O2)Oc2ccccc21` (stereo not given) the “activity change, negative = inhibition” value was “inactive”.
In the case of `CCc1nc(Nc2ccncc2)c2oc3ccccc3c2n1`, the “activity change, negative = inhibition” value is reported as “inactive”.
With `Cc1cccc(NC(=O)c2cc(S(=O)(=O)N3CCCCC3)c[nH]2)c1C` the “activity change, negative = inhibition” value was “inactive”.
With `COCCNc1nc(N)c([N+](=O)[O-])c(N2CCCCCC2)n1` the “activity change, negative = inhibition” value was “inactive”.
In the case of `COc1ccc(C2C3=C(CC(C)(C)CC3=O)Nc3n[nH]c(C)c32)cc1` (stereo not given), the “activity change, negative = inhibition” value is reported as “inactive”.
`Cc1nc2c(C)cccn2c(=O)c1NC(=O)COc1ccccc1` was tested, and the “activity change, negative = inhibition” value was “inactive”.
In the case of `CC(=O)NC(Cc1c[nH]c2ccccc12)C(=O)O` (stereo not given), the “activity change, negative = inhibition” value is reported as “inactive”.
With `COc1ccc(-c2ccc(-c3nnc(-c4cc(OC)ccc4OC)o3)cc2)cc1` the “activity change, negative = inhibition” value was “inactive”.
`COc1ccc(OC)c(/C=N/c2c(-c3ccc(O)c(OC)c3)nc3ccccn23)c1` was tested, and the “activity change, negative = inhibition” value was “inactive”.
`CCOc1ccc(C2C(C#N)=C(N)Oc3c2c(=O)oc2ccccc32)cc1` (stereo not given) was tested, and the “activity change, negative = inhibition” value was “inactive”.
In the case of `O=C(Nc1cc(S(=O)(=O)N2CCOCC2)ccc1N1CCCC1)c1cnccn1`, the “activity change, negative = inhibition” value is reported as “inactive”.
With `CCN1CCN(c2ccc(NC(=O)c3cccc(OCc4ccccc4)c3)cc2)CC1` the “activity change, negative = inhibition” value was “inactive”.
`CCOc1ccc(-n2ccnc(SCC(=O)NC3CCCC3)c2=O)cc1` was tested, and the “activity change, negative = inhibition” value was “inactive”.
For `COc1cccc(-c2nc(C#N)c(N3CCN(C(=O)c4ccco4)CC3)o2)c1`, the “activity change, negative = inhibition” value was “inactive”.
For `Cc1cc(C(=O)N/N=C/c2c3ccccc3cc3ccccc23)n[nH]1`, the “activity change, negative = inhibition” value was “inactive”.
`Oc1ccc(-c2nc3ccccn3c2NCc2ccco2)cc1` was tested, and the “activity change, negative = inhibition” value was “inactive”.
`C/C(CC(=O)NCc1ccco1)=N\NC(=O)c1ccc([N+](=O)[O-])cc1Cl` was tested, and the “activity change, negative = inhibition” value was “inactive”.
With `COc1ccccc1-c1cc(C(=O)O)c2c(=O)n(C)c(=O)n(Cc3ccccc3)c2n1` the “activity change, negative = inhibition” value was “inactive”.
`CCOC(=O)c1sc2nc(C3CC3)cc(-c3ccc(F)cc3)c2c1N` was tested, and the “activity change, negative = inhibition” value was “inactive”.
`COc1ccc(OCC(=O)NS(=O)(=O)c2ccc(Cl)cc2)cc1` was tested, and the “activity change, negative = inhibition” value was “inactive”.
In the case of `CCCCNC(=S)NNC(=O)CCn1cc(C)cn1`, the “activity change, negative = inhibition” value is reported as “inactive”.
